In patent publication US7601333B2, “Use of a tetrapeptide AcSDKP (SEQ ID No. 1) analog resistant to the angiotensin I converting enzyme for measuring glomerular filtration rate in a human or an animal and kit containing same” (Assistance Publique-Hopitaux de Paris, priority 2003, dated 2009):
Residues, ends and D or L forms follow the SMILES beside them.

Tests used:
rat lung ACE = target: T1, rat lung ACE (Rattus norvegicus, UniProt P47820); assay: In vitro degradation in the presence of rat lung ACE; assay type: in vitro ADME; conditions: for percentage of peptide assayed relative to the control: peptide 100 nM, ground rat lung material 0.1 mg/ml, pH 7.5
T1 construct: incubated with ground rat lung material (at 0.1 mg/ml); from tissue; host or cells: rat lung (ground material)
T1 sequence (P47820 36-1313): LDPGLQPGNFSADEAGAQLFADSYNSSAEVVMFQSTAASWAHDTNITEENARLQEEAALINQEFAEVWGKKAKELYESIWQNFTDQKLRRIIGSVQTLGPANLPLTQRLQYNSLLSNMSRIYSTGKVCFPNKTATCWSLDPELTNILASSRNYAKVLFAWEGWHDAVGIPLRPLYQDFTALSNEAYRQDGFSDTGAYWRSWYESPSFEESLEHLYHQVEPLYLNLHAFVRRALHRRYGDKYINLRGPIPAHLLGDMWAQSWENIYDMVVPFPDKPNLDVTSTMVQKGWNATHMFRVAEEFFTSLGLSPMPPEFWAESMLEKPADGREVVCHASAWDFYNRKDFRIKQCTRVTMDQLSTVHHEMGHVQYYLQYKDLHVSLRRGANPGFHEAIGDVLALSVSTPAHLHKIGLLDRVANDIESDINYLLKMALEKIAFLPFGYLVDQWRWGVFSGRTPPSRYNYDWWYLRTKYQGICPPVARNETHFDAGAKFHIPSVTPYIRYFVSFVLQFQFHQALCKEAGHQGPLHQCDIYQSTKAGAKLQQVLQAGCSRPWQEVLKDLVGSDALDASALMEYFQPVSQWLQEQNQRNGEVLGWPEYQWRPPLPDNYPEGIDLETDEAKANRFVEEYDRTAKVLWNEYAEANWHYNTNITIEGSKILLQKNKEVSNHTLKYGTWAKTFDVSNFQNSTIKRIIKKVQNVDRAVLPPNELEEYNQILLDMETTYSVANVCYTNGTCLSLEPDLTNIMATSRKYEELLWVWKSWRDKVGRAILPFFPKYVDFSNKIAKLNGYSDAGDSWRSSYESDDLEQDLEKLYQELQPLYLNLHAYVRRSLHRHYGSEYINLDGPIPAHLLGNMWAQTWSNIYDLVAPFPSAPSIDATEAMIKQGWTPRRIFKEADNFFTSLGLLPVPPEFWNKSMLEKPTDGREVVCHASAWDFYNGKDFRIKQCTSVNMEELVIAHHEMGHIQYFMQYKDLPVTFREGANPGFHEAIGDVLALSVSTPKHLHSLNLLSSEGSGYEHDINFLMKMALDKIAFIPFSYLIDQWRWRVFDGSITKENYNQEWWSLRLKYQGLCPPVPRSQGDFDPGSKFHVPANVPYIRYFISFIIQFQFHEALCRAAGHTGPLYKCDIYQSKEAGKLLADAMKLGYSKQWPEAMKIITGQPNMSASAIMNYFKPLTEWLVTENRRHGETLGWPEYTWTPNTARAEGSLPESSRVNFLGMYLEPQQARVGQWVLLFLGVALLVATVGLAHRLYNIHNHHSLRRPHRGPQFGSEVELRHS
Description: The peptides (100 nM) were incubated with ground rat lung material (at 0.1 mg/ml) or human converting enzyme (5 mU final concentration) in the presence or absence of captopril (10 μM final concentration) in 0.1 M Tris/HCl buffer+0.3 mM NaCl, pH=7.5. A control comprising only the peptides in the presence of 0.1 M Tris/HCl buffer+0.3 mM NaCl, pH=7.5, was carried out.
A methanol extraction was carried out in order to stop the reaction. At each time, the concentration of the nondegraded peptide was measured by enzyme immunoassay.
The results were expressed as percentage of peptide assayed relative to the control for each sample time.

plasma proteins = conditions: cited from earlier work
N-terminal site of ACE = N-terminal site of ACE (Homo sapiens, UniProt P12821); conditions: AcSDKP as substrate, in vitro; cited from earlier work
[1] = cited from earlier work
[2] = cited from earlier work; remark: listed apart in the source
[3] = target: T2, ACE present in mouse plasma (Mus musculus, UniProt P09470); conditions: cited from earlier work
T2 construct: host or cells: mouse plasma
T2 sequence (P09470 35-1237 limits assumed): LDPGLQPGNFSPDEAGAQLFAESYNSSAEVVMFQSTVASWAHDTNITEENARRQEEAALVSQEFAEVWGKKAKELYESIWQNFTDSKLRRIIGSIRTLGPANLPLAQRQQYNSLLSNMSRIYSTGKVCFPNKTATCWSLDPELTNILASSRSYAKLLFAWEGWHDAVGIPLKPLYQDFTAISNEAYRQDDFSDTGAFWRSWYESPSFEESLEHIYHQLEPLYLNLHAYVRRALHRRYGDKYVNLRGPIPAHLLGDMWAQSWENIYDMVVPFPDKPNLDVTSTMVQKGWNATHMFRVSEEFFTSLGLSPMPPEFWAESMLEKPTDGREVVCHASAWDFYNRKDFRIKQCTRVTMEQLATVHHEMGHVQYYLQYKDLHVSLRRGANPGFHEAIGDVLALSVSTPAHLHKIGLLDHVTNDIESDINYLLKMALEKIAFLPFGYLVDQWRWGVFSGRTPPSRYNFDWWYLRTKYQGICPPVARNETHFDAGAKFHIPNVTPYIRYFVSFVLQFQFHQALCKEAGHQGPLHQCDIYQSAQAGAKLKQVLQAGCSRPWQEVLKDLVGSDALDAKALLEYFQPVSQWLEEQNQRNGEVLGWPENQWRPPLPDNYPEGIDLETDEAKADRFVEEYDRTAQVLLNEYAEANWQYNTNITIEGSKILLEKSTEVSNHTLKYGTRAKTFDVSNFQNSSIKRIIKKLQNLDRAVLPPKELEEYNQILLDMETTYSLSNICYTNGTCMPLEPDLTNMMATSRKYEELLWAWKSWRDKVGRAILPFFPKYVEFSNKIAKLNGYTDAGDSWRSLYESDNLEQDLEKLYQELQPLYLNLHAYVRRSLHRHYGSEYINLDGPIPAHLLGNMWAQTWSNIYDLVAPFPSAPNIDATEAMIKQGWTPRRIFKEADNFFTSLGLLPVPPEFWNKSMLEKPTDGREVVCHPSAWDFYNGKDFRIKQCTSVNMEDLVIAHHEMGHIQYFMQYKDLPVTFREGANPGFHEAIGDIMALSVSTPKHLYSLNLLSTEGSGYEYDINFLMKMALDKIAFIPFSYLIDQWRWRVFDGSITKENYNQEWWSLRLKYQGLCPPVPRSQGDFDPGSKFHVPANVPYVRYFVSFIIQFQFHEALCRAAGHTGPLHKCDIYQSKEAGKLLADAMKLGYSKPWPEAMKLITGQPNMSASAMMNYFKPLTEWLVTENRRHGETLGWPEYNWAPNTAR

Chain of N-terminal site of ACE (P12821 40-624 limits assumed): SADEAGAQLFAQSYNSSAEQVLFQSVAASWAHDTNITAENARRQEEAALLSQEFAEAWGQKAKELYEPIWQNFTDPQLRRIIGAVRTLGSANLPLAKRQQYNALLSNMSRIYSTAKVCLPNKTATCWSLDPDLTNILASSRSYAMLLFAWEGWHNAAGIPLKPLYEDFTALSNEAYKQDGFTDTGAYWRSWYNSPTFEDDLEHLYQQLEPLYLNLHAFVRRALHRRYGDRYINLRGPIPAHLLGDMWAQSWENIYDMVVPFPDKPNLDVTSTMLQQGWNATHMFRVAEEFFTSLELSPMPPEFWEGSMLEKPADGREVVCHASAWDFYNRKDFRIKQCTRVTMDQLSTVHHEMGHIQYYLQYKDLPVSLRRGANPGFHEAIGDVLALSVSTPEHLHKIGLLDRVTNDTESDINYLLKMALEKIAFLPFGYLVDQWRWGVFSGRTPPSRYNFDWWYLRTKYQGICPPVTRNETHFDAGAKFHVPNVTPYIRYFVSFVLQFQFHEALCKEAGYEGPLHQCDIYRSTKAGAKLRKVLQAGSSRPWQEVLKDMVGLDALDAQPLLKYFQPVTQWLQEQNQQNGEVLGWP

Row | SMILES | degradation by rat ACE (rat lung ACE; in vitro) | percentage of peptide assayed relative to the control (rat lung ACE; T30 min, + captopril 10 μM) [%] | bound to the plasma proteins (plasma proteins) [%] | catalytic effectiveness of N-terminal site of ACE relative to C-terminal site (N-terminal site of ACE) [times] | concentration in the plasma, minimum value ([1]; between two 50 mg doses of captopril) [pmol/mL] | urinary clearance relative to endogenous creatinine clearance ([1]; with an ACE inhibitor) [%] | concentrations found (rat lung ACE; in vitro, relative to control) [%] | percentage of peptide assayed relative to the control (rat lung ACE; T60 min, + captopril 10 μM) [%] | percentage of peptide assayed relative to the control (rat lung ACE; T240 min, + captopril 10 μM) [%] | percentage of peptide assayed relative to the control (rat lung ACE; T240 min, without captopril) [%] | modification after 3 freezing-thawing cycles [2] | degradation by the ACE present in mouse plasma [3]
1 | CC(=O)N[C@@H](CO)C(=O)N[C@@H](CC(=O)O)C(=O)N[C@@H](CCCCN)C(=O)N1CCC[C@H]1C(=O)O [AcSDKP, N-acetyl-Ser-Asp-Lys-Pro] (Ac-SDKP-OH; C-terminus assumed) | degraded | 129 | < 1 | 50 | 2 | 69±27 |  |  |  |  |  | 
2 | CC(=O)N[C@@H](CO)C(=O)N[C@@H](CC(=O)O)C(=O)N[C@@H](CCCCN)C(=O)N1CCC[C@H]1C(N)=O [AcSDKP-NH2, N-acetyl-Ser-Asp-Lys-Pro-NH2] (Ac-SDKP-NH2) | does not appear to be degraded | 125 |  |  |  |  | 100±25 | 65 | 136 | 126 | no adverse modification | not degraded
